Assay results published in US5344828A, “Piperazinealkanoic acid and a pharmaceutical composition comprising the same” (Hokuriku Pharmaceutical Co., Ltd., priority 1990, dated 1994).

Molecular target: T1, contractile response induced by histamine in isolated guinea-pig ileum (Cavia porcellus, UniProt P31389)
T1 construct: An approximately 20 mm strip of isolated ileum was mounted vertically; from tissue; host or cells: isolated ileum strip, male Hartley guinea-pig
Assay: Antihistaminic activity (Effect on the contractile response induced by histamine in isolated guinea-pig ileum)
Design: species or system guinea-pig (male Hartley)
Conditions: dissociation constant KB (M), method of Furchgott, 30 min contact with test compound, 28° C.
Protocol: 1. Antihistaminic activity (Effect on the contractile response induced by histamine in isolated guinea-pig ileum)
Male Hartley guinea-pigs, 5-8 weeks of age, were sacrificed and the ileum was excised. […] The contractile response was recorded on a recticorder an isotonic transducer. The concentration-contractile response curve to histamine was constructed before and after 30 min contact with test compounds.

T1 sequence (P31389 whole entry): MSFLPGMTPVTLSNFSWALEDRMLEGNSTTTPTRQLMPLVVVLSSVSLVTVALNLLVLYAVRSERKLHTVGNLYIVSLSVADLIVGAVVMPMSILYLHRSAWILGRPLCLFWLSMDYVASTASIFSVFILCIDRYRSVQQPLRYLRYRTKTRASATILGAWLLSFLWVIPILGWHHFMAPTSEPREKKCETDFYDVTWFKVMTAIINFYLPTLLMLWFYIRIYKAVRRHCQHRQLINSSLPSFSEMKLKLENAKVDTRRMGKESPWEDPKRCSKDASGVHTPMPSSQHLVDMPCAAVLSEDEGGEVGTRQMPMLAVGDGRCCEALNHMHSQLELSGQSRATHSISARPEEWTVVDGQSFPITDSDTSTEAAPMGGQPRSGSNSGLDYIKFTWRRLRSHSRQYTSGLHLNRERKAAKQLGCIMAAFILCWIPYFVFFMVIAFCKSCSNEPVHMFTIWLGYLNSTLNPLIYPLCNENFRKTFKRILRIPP

Kb [M] | Compound
1.2e-08 | CCOC(=O)CCN1CCN(C2=Nc3ccccc3Oc3ccc(Cl)cc32)CC1 [Example 2, Ethyl 4-(2-Chlorodibenz[b,f][1,4]oxazepin-11-yl)-1-piperazinepropionate]
4.9e-09 | CCOC(=O)CCCN1CCN(C2=Nc3ccccc3Oc3ccc(Cl)cc32)CC1 [Example 4, Ethyl 4-(2-Chlorodibenz[b,f][1,4]oxazepin-11-yl)-1-piperazinebutyrate]
1.05e-08 | CCOC(=O)CCCCN1CCN(C2=Nc3ccccc3Oc3ccc(Cl)cc32)CC1 [Example 5, Ethyl 4-(2-Chlorodibenz[b,f][1,4]oxazepin-11-yl)-1-piperazinevalerate]
3.09e-09 | CCOC(=O)CCCCCN1CCN(C2=Nc3ccccc3Oc3ccc(Cl)cc32)CC1 [Example 6]
5.01e-08 | O=C(O)CCN1CCN(C2=Nc3ccccc3Oc3ccc(Cl)cc32)CC1 [Example 8, 4-(2-Chlorodibenz[b,f][1,4]oxazepin-11-yl)-1-piperazinepropionic acid]
4.79e-08 | O=C(O)CCCN1CCN(C2=Nc3ccccc3Oc3ccc(Cl)cc32)CC1 [Example 9, 4-(2-Chlorodibenz[b,f][1,4]oxazepin-11-yl)-1-piperazinebutyric acid]
5.5e-08 | O=C(O)CCCCN1CCN(C2=Nc3ccccc3Oc3ccc(Cl)cc32)CC1 [Example 10, 4-(2-Chlorodibenz[b,f][1,4]oxazepin-11-yl)-1-piperazinevaleric acid]
5.13e-08 | CCOC(=O)CCN1CCN(C2=Nc3ccccc3Sc3ccc(Cl)cc32)CC1 [Example 13, Ethyl 4-(2-Chlorodibenzo[b,f][1,4]thiazepin-11-yl)-1-piperazinepropionate]
3.02e-08 | CCOC(=O)CCCN1CCN(C2=Nc3ccccc3Sc3ccc(Cl)cc32)CC1 [Example 15, Ethyl 4-(2-Chlorodibenzo [b,f][1,4]thiazepin-11-yl)-1-piperazinebutyrate]
4.68e-08 | CCOC(=O)CCCCN1CCN(C2=Nc3ccccc3Sc3ccc(Cl)cc32)CC1 [Example 16, Ethyl 4-(2-Chlorodibenzo[b,f][1,4]thiazepin-11-yl)-1-piperazinevalerate]
5.5e-08 | CCOC(=O)CCCCCN1CCN(C2=Nc3ccccc3Sc3ccc(Cl)cc32)CC1 [Example 17, Ethyl 4-(2-Chlorodibenzo[b,f][1,4]thiazepin-11-yl)-1piperazinecaproate]
5.75e-08 | O=C(O)CCCN1CCN(C2=Nc3ccccc3Sc3ccc(Cl)cc32)CC1 [Example 20, 4-(2-Chlorodibenzo[b,f][1,4]thiazepin-11-yl)-1-piperazinebutyric acid]
5.89e-08 | O=C(O)CCCCN1CCN(C2=Nc3ccccc3Sc3ccc(Cl)cc32)CC1 [Example 21, 4-(2-Chlorodibenzo [b,f][1,4]thiazepin-11-yl)-1-piperazinevaleric acid]
1.35e-08 | CCOC(=O)CCCN1CCN(C2=Nc3ccccc3Cc3ccccc32)CC1 [Example 26, Ethyl 4-(11H-Dibenz[b,e]azepin-6-yl)-1-piperazinebutyrate]
7.94e-09 | CCOC(=O)CCCCN1CCN(C2=Nc3ccccc3Cc3ccccc32)CC1 [Example 27, Ethyl 4-(11H-Dibenz[b,e]azepin-6-yl)-1-piperazinevalerate]
1.74e-08 | CCOC(=O)CCCCCN1CCN(C2=Nc3ccccc3Cc3ccccc32)CC1 [Example 28, Ethyl 4-(11H-Dibenz[b,e]azepin-6-yl)-1-piperazinecaproate]

The remaining lines, values behind:

Compound | Kb [M]
CN1CCN(C2=Nc3ccccc3Sc3ccc(Cl)cc32)CC1 [Clothiapine, reference compound] | 1.35e-09
O=C(O)CCN1CCN(C2=Nc3ccccc3Sc3ccc(Cl)cc32)CC1 [Example 19, 4-(2-Chlorodibenzo[b,f][1,4]thiazepin-11-yl)-1-piperazinepropionic acid] | 5.25e-08
O=C(O)CCCCCN1CCN(C2=Nc3ccccc3Sc3ccc(Cl)cc32)CC1 [Example 22, 4-(2-Chlorodibenzo[b,f][1,4]thiazepin-11-yl)-1-piperazinecaproic acid] | 3.47e-08
CCOC(=O)CCN1CCN(C2=Nc3ccccc3Cc3ccccc32)CC1 [Example 24, Ethyl 4-(11H-Dibenz[b,e]azepin-6-yl)-1-piperazinepropionate] | 8.91e-09
CCOC(=O)CN1CCN(C2=Nc3ccccc3Cc3ccccc32)CC1 [Example 25, Ethyl 4-(11H-Dibenz[b,e]azepin-6-yl)-1-piperazineacetate] | 4.57e-08
O=C(O)CCN1CCN(C2=Nc3ccccc3Cc3ccccc32)CC1 [Example 30, 4-(11H-Dibenz[b,e]azepin-6-yl)-1-piperazinepropionic acid] | 5.75e-08
O=C(O)CCCCN1CCN(C2=Nc3ccccc3Cc3ccccc32)CC1 [Example 32, 4-(11H-Dibenz[b,e]azepin-6-yl)-1-piperazinevaleric acid] | 5.75e-08
O=C(O)CCCCCN1CCN(C2=Nc3ccccc3Cc3ccccc32)CC1 [Example 33, 4-(11H-Dibenz[b,e]azepin-6-yl)-1-piperazinecaproic acid] | 2.69e-08
CCOC(=O)CCN1CCN2c3ccccc3Cc3ccccc3C2C1 (stereo not shown) [Example 35, Ethyl 3-(1,2,3,4,10,14b-Hexahydrodibenzo[c,f]pyrazino[1,2-a]azepin-2-yl)propionate] | 2.69e-09
CCOC(=O)CN1CCN2c3ccccc3Cc3ccccc3C2C1 (stereo not shown) [Example 36, Ethyl 2-(1,2,3,4,10,14b-Hexahydrodibenzo[c,f]pyrazino[1,2-a]azepin-2-yl)acetate] | 3.24e-08
CCOC(=O)CCCN1CCN2c3ccccc3Cc3ccccc3C2C1 (stereo not shown) [Example 37, Ethyl 4-(1,2,3,4,10,14b-Hexahydrodibenzo[c,f]pyrazino[1,2-a]azepin-2-yl)butyrate] | 2.4e-09
CCOC(=O)CCCCN1CCN2c3ccccc3Cc3ccccc3C2C1 (stereo not shown) [Example 38, Ethyl 5-(1,2,3,4,10,14b-Hexahydrodibenzo[c,f]pyrazino[1,2-a]azepin-2-yl)valerate] | 1.1e-08
CCOC(=O)CCCCCN1CCN2c3ccccc3Cc3ccccc3C2C1 (stereo not shown) [Example 39, Ethyl 6-(1,2,3,4,10,14b-Hexahydrodibenzo[c,f]Pyrazino[1,2-a]azepin-2-yl)caproate] | 1.29e-08
O=C(O)CN1CCN2c3ccccc3Cc3ccccc3C2C1 (stereo not shown) [Example 40, 2-(1,2,3,4,10,14b-Hexahydrodibenzo[c,f]pyrazino[1,2-a]azepin-2-yl)acetic acid] | 1.82e-08
O=C(O)CCN1CCN2c3ccccc3Cc3ccccc3C2C1 (stereo not shown) [Example 41, 3-(1,2,3,4,10,14b-Hexahydrodibenzo[c,f]pyrazino[1,2-a]azepin-2-yl)propionicacid] | 2.51e-08
O=C(O)CCCN1CCN2c3ccccc3Cc3ccccc3C2C1 (stereo not shown) [Example 42, 4-(1,2,3,4,10,14b-Hexahydrodibenzo[c,f]pyrazino[1,2-a]azepin-2-yl)butyric acid] | 3.09e-08
O=C(O)CCCCN1CCN2c3ccccc3Cc3ccccc3C2C1 (stereo not shown) [Example 43, 5-(1,2,3,4,10,14b-Hexahydrodibenzo[c,f]pyrazino[1,2-a]azepin-2-yl)valeric acid] | 4.79e-08
O=C(O)CCCCCN1CCN2c3ccccc3Cc3ccccc3C2C1 (stereo not shown) [Example 44, 6-(1,2,3,4,10,14b-Hexahydrodibenzo[c,f]pyrazino[1,2-a]azepin-2-yl)caproic acid] | 3.24e-08
CN1CCN(C2=Nc3ccccc3Cc3ccccc32)CC1 [Perlapine, reference compound] | 7.08e-10

System: 48 hr homologous passive cutaneous anaphylaxis (PCA) in rat
Assay: Antiallergic activity (48 hr homologous passive cutaneous anaphylaxis (PCA) in rat)
Format: in vivo, rat (male Wistar)
Conditions: oral, 1 hr before antigen challenge, vs control group, read-out: Inhibition rate (%) of PCA
Protocol: 2. Antiallergic activity (48 hr homologous passive cutaneous anaphylaxis (PCA) in rat)
Male Wistar rats, 6 weeks of age, were passively sensitized by intracutaneous injection in the back of a volume of 0.1 ml of anti-DNP-As rat serum. Forty-eight hours later, the animals were administered an intravenous injection of 0.5 ml saline solution containing 1 mg of DNP-As and 5 mg of Evans blue. The animals were sacrificed 30 min after the injection and the extravasated dye was extracted with 1N KOH and acetone, neutralized with 1N H3 PO4 and the absorbance at 620 nm was determined. The test compounds were administered orally in a dose of 1 mg/Kg 1 hr before antigen challenge. The inhibitory activity of a test compound was expressed as percent inhibition of PCA as compared with the control group.

Compound | inhibition at 1 mg/kg [%]
Clc1ccc2c(c1)C(N1CCNCC1)=Nc1ccccc1O2 [Amoxapine, reference compound] | 50.9
O=C(O)CCN1CCN(C2=Nc3ccccc3Oc3ccc(Cl)cc32)CC1 [Example 8, 4-(2-Chlorodibenz[b,f][1,4]oxazepin-11-yl)-1-piperazinepropionic acid] | 88.6
O=C(O)CCCN1CCN(C2=Nc3ccccc3Oc3ccc(Cl)cc32)CC1 [Example 9, 4-(2-Chlorodibenz[b,f][1,4]oxazepin-11-yl)-1-piperazinebutyric acid] | 95.8
O=C(O)CCCCN1CCN(C2=Nc3ccccc3Oc3ccc(Cl)cc32)CC1 [Example 10, 4-(2-Chlorodibenz[b,f][1,4]oxazepin-11-yl)-1-piperazinevaleric acid] | 84.1
O=C(O)CCCCCN1CCN(C2=Nc3ccccc3Oc3ccc(Cl)cc32)CC1 [Example 11] | 86.4
O=C(O)CCN1CCN(C2=Nc3ccccc3Sc3ccc(Cl)cc32)CC1 [Example 19, 4-(2-Chlorodibenzo[b,f][1,4]thiazepin-11-yl)-1-piperazinepropionic acid] | 64.6
O=C(O)CCCN1CCN(C2=Nc3ccccc3Sc3ccc(Cl)cc32)CC1 [Example 20, 4-(2-Chlorodibenzo[b,f][1,4]thiazepin-11-yl)-1-piperazinebutyric acid] | 77.7
O=C(O)CCCCN1CCN(C2=Nc3ccccc3Sc3ccc(Cl)cc32)CC1 [Example 21, 4-(2-Chlorodibenzo [b,f][1,4]thiazepin-11-yl)-1-piperazinevaleric acid] | 78.5
O=C(O)CCCCCN1CCN(C2=Nc3ccccc3Sc3ccc(Cl)cc32)CC1 [Example 22, 4-(2-Chlorodibenzo[b,f][1,4]thiazepin-11-yl)-1-piperazinecaproic acid] | 77.2
O=C(O)CCN1CCN2c3ccccc3Cc3ccccc3C2C1 (stereo not shown) [Example 41, 3-(1,2,3,4,10,14b-Hexahydrodibenzo[c,f]pyrazino[1,2-a]azepin-2-yl)propionicacid] | 76.5
O=C(O)CCCN1CCN2c3ccccc3Cc3ccccc3C2C1 (stereo not shown) [Example 42, 4-(1,2,3,4,10,14b-Hexahydrodibenzo[c,f]pyrazino[1,2-a]azepin-2-yl)butyric acid] | 65.6
O=C(O)CCCCN1CCN2c3ccccc3Cc3ccccc3C2C1 (stereo not shown) [Example 43, 5-(1,2,3,4,10,14b-Hexahydrodibenzo[c,f]pyrazino[1,2-a]azepin-2-yl)valeric acid] | 73.9
O=C(O)CCCCCN1CCN2c3ccccc3Cc3ccccc3C2C1 (stereo not shown) [Example 44, 6-(1,2,3,4,10,14b-Hexahydrodibenzo[c,f]pyrazino[1,2-a]azepin-2-yl)caproic acid] | 71.8
CN1CCN2c3ccccc3Cc3ccccc3C2C1 (stereo not shown) [Mianserin, reference compound] | 61.4
